Inconclusive results and toxic doses are left out. How the source made its calls: active means survival T/C of 150% or more; inactive means T/C below 125% in these data.
Test system: CD2F1 mice, L1210 leukemia ip, survival T/C
Assay: NCI In Vivo Anticancer Drug Screen. Data for tumor model L1210 Leukemia (intraperitoneal) in CD2F1 (CDF1) mice
Conditions: endpoint: mean survival time, schedule: Q04DX002 (ip), vehicle: saline with Tween-80, higher = longer survival
Procedure, shortened: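 Compound-dosed mice with transplantable tumor versus matched vehicle controls; endpoint ratio T/C reported.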

Measured: T/C

CCOc1ccc(OCC)c(NC(=O)Nc2ccccc2Cl)c1
inactive: dose: 25.0 mg/kg/injection 94 % of control | dose: 50.0 mg/kg/injection 94 % of control | dose: 100.0 mg/kg/injection 90 % of control
